The source of these data is US11766425B2, “Antibiotic combination therapies” (BIOVERSYS AG, priority 2019, dated 2023).

Where two headings read alike, the source gives them in different places. A value given as a limit tells only on which side of the number the result lay.

Assay type in all cases: cell-based, Acinetobacter baumannii
The test system of one assay is A. baumannii 401046-18. The experiment in a line: broth microdilution checkerboard MIC/synergy. Particulars: for MIC: Acinetobacter baumannii, 40104618, strain 401046-18, antibiotic alone, read-out: MICs alone; for MICs combi: strain 401046-18. The procedure: (§1) Checkerboards were performed according to the CLSI parameters used for microbroth dilution MIC5. CA-MHB, iron-depleted CA-MHB (ID-CA-MHB) or RPMI supplemented with 10% FCS medium were used as specified and ID-CA-MHB was prepared according to CLSI guidelines. […] FICI is calculated as follows: […]
In general terms: Dilution methods test growth across graded concentrations, often in twofold steps.

In the next assay the test system is A. baumannii 401255-18. The experiment in a line: broth microdilution checkerboard MIC/synergy. Particulars: for MIC: Acinetobacter baumannii, 40125518, strain 401255-18, antibiotic alone, read-out: MICs alone; for MICs combi: strain 401255-18. The procedure:
as §1

Another assay relates to A. baumannii 402292-17. The experiment in a line: broth microdilution checkerboard MIC/synergy. Particulars: for MIC: Acinetobacter baumannii, 40229217, strain 402292-17, antibiotic alone, read-out: MICs alone; for MICs combi: strain 402292-17. The procedure: as §1
A further assay concerns A. baumannii 402608-17. The experiment in a line: broth microdilution checkerboard MIC/synergy. Particulars: for MIC: Acinetobacter baumannii, 40260817, strain 402608-17, antibiotic alone, read-out: MICs alone; for MICs combi: strain 402608-17. The procedure: as §1
For another assay, the system named is A. baumannii HUMC1. The experiment in a line: broth microdilution checkerboard MIC/synergy. Particulars: for MIC: Acinetobacter baumannii, HUMC1, read-out: MICs alone; for MICs combi: strain HUMC1. How it is done: as §1
A further assay has as its system A. baumannii IHMA1013816. Put plainly: broth microdilution checkerboard MIC/synergy. Particulars: for MICs combi: strain IHMA1013816. How it is done: as §1
For another assay, the system named is A. baumannii IHMA690517. The experiment in a line: broth microdilution checkerboard MIC/synergy. Particulars: for MIC: Acinetobacter baumannii, IHMA690517, strain IHMA690517, antibiotic alone, read-out: MICs alone; for MICs combi: strain IHMA690517. How it is done: as §1
The next assay deals with A. baumannii IHMA863866. The experiment in a line: broth microdilution checkerboard MIC/synergy. The procedure:
as §1

The subject of the next assay is A. baumannii IHMA867231. The experiment in a line: broth microdilution checkerboard MIC/synergy. Particulars: for MIC: Acinetobacter baumannii, IHMA867231, strain IHMA867231, antibiotic alone, read-out: MICs alone; for MICs combi: strain IHMA867231. The procedure: as §1
The next assay concerns A. baumannii IHMA919656. Put plainly: broth microdilution checkerboard MIC/synergy. Particulars: for MICs combi: strain IHMA919656. How it is done:
as §1

Another assay relates to A. baumannii UNT087-1. The experiment in a line: broth microdilution checkerboard MIC/synergy. Particulars: for MIC: Acinetobacter baumannii, UNT0871, strain UNT087-1, antibiotic alone, read-out: MICs alone; for MICs combi: strain UNT087-1. How it is done:
as §1

Another assay relates to A. baumannii UNT091-1. Put plainly: broth microdilution checkerboard MIC/synergy. Particulars: for MIC: Acinetobacter baumannii, UNT0911, strain UNT091-1, antibiotic alone, read-out: MICs alone. The procedure: as §1
A further assay relates to A. baumannii UNT191-1. The experiment in a line: broth microdilution checkerboard MIC/synergy. Particulars: for MIC: Acinetobacter baumannii, UNT1911, strain UNT191-1, antibiotic alone, read-out: MICs alone; for MICs combi: strain UNT191-1. The procedure: as §1
The test system of the next assay is A. baumannii UNT238-1. The experiment in a line: broth microdilution checkerboard MIC/synergy. Particulars: ID-CA-MHB. The procedure:
as §1

In another assay the test system is A. baumannii UNT239-1. The experiment in a line: broth microdilution checkerboard MIC/synergy. Particulars: for MICs combi: strain UNT239-1. How it is done: as §1
The test system of assay [1] is A. baumannii LAC-4 strain. The experiment in a line: broth microdilution checkerboard MIC/synergy. Particulars: for FICI / Interpretation: second antibiotic in combination with rifabutin, LAC-4; for MICs combi: strain LAC-4. The procedure: as §1
The checkerboards were performed in CA-MHB or ID-CA-MHB for cefiderocol.

Assay [2] has as its system panel of MDR clinical isolates of A. baumannii. How it is done:
as §1

The mark [3] stands for this setting: rifabutin/cefiderocol checkerboard, ID-CA-MHB.
[4] abbreviates: rifabutin/cefiderocol in combination, ID-CA-MHB.
Where [5] appears, read: rifabutin/cefiderocol checkerboard.
[6] abbreviates: rifabutin/cefiderocol in combination.
The mark [7] stands for this setting: rifampicin/colistin checkerboard.
The mark [8] stands for this setting: rifampicin/colistin in combination.

For `CC(C)(O/N=C(\C(=O)N[C@@H]1C(=O)N2C(C(=O)[O-])=C(C[N+]3(CCNC(=O)c4ccc(O)c(O)c4Cl)CCCC3)CS[C@H]12)c1csc(N)n1)C(=O)O` [Cefiderocol, cefiderocol], the MIC in the assay with A. baumannii 401046-18 (setting [3]) was 128 µg/mL; in the assay on A. baumannii 401255-18 (setting [5]), 16 µg/mL; with A. baumannii 402292-17 (setting [5]) it was > 32 µg/mL; in the assay on A. baumannii 402608-17 (setting [5]), 8 µg/mL; in the assay on A. baumannii HUMC1 it was 2 µg/mL; in the assay with A. baumannii IHMA1013816 (Acinetobacter baumannii, IHMA1013816, strain IHMA1013816, antibiotic alone, rifabutin/cefiderocol checkerboard, read-out: MICs alone) it was 0.06 µg/mL. Further, the MIC with A. baumannii IHMA690517 (setting [5]) was 0.25 µg/mL; with A. baumannii IHMA863866 (Acinetobacter baumannii, IHMA863866, read-out: MICs alone) it was 4 µg/mL; in the assay with A. baumannii IHMA867231 (setting [5]), 1 µg/mL; with A. baumannii IHMA919656 (Acinetobacter baumannii, IHMA919656, strain IHMA919656, antibiotic alone, rifabutin/cefiderocol checkerboard, read-out: MICs alone), 0.125 µg/mL; in the assay on A. baumannii UNT087-1 (setting [5]), 0.5 µg/mL; in the assay with A. baumannii UNT091-1 (setting [5]), 4 µg/mL. The MIC stood at 16 µg/mL in the assay with A. baumannii UNT191-1 (setting [3]); 4 µg/mL in the assay with A. baumannii UNT238-1 (Acinetobacter baumannii, UNT2381, strain UNT238-1, antibiotic alone, rifabutin/cefiderocol checkerboard, read-out: MICs alone); 4 µg/mL in the assay with A. baumannii UNT239-1 (Acinetobacter baumannii, UNT2391, read-out: MICs alone); 1 µg/mL in assay [1] (Acinetobacter baumannii, LAC4STRAIN, read-out: MICs alone). Moreover, the MICs combi is recorded as 32 mg/L in the assay on A. baumannii 401046-18 (setting [4]); 4 mg/L in the assay with A. baumannii 401255-18 (setting [6]); 8 mg/L in the assay on A. baumannii 402292-17 (setting [6]); 2 mg/L with A. baumannii 402608-17 (setting [6]); 0.5 mg/L in the assay on A. baumannii HUMC1 (setting [6]); 0.016 mg/L in the assay with A. baumannii IHMA1013816 (setting [6]). Further, the MICs combi with A. baumannii IHMA690517 (setting [6]) came to 0.06 mg/L; with A. baumannii IHMA863866 (strain IHMA863866, rifabutin/cefiderocol in combination) it was 1 mg/L; with A. baumannii IHMA867231 (setting [6]), 0.25 mg/L; with A. baumannii IHMA919656 (setting [6]) it was 0.03 mg/L; with A. baumannii UNT087-1 (setting [6]) it was 0.125 mg/L; in the assay with A. baumannii UNT091-1 (strain UNT091-1, rifabutin/cefiderocol in combination), 1 mg/L. Also, the MICs combi came to 4 mg/L in the assay on A. baumannii UNT191-1 (setting [4]); 1 mg/L with A. baumannii UNT238-1 (strain UNT238-1, rifabutin/cefiderocol in combination); 1 mg/L with A. baumannii UNT239-1 (setting [4]); 0.25 mg/L in assay [1] (setting [4]). Besides, the FICI in assay [1] (ID-CA-MHB) is given as 0.5. Further, the Interpretation entry in [1] (ID-CA-MHB) is recorded as “synergy (synergy (FICI≤0.5))”. Moreover, the “decrease in the MIC of cefiderocol” value in [2] (in combination with rifabutin, all A. baumannii strains tested (16 MDR isolates)) was ≥ 4 fold. In [2] (rifabutin/cefiderocol, panel of strains), the “strains on which synergy was observed” value is given as 100%.

`CO/N=C(\C(=O)N[C@@H]1C(=O)N2C(C(=O)O)=C(COC(C)=O)CS[C@H]12)c1csc(N)n1` [Cefotaxime, cefotaxime]: in assay [1] (CA-MHB), the FICI worked out at 1.5; the Interpretation entry is “indifferent (indifferent (FICI>0.50 and ≤4))”.

With `CN(C)[C@@H]1C(O)=C(C(N)=O)C(=O)[C@@]2(O)C(O)=C3C(=O)c4c(O)c(NC(=O)CN5CCCC5)cc(F)c4C[C@H]3C[C@@H]12` [Eravacycline, eravacycline], in assay [1] (CA-MHB), the FICI was 1; the Interpretation result was “indifferent (indifferent (FICI>0.50 and ≤4))”.

Take `C[C@@H](O)[C@H]1C(=O)N2C(C(=O)O)=C(S[C@@H]3CN[C@H](C(=O)N(C)C)C3)[C@H](C)[C@H]12` [Meropenem, meropenem]: in assay [1] (CA-MHB), the FICI is recorded as 1; the Interpretation result is “indifferent (indifferent (FICI>0.50 and ≤4))”.

As to `CN(C)c1ccc(O)c2c1C[C@H]1C[C@H]3[C@H](N(C)C)C(O)=C(C(N)=O)C(=O)[C@@]3(O)C(O)=C1C2=O` [Minocycline, minocycline], in [1] (CA-MHB), the FICI is given as 1; the Interpretation result was “indifferent (indifferent (FICI>0.50 and ≤4))”.

`CO[C@H]1/C=C/O[C@@]2(C)Oc3c(C)c(O)c4c(O)c(c(/C=N/N5CCN(C)CC5)c(O)c4c3C2=O)NC(=O)/C(C)=C\C=C\[C@H](C)[C@H](O)[C@@H](C)[C@@H](O)[C@@H](C)[C@H](OC(C)=O)[C@@H]1C` [Rifampicin, rifampicin]: the MIC in the assay with A. baumannii 401046-18 (setting [7]) was found to be 512 µg/mL; in the assay on A. baumannii 401255-18 (setting [7]), 512 µg/mL; in the assay with A. baumannii 402292-17 (setting [7]) it was 512 µg/mL; in the assay on A. baumannii 402608-17 (setting [7]), 512 µg/mL; in the assay with A. baumannii HUMC1, 4 µg/mL; in the assay with A. baumannii IHMA690517 (setting [7]), 4 µg/mL. The MIC with A. baumannii IHMA867231 (setting [7]) was determined as 512 µg/mL; in the assay with A. baumannii UNT087-1 (setting [7]) it was 4 µg/mL; in the assay with A. baumannii UNT091-1 (setting [7]), 4 µg/mL; in the assay on A. baumannii UNT191-1 (setting [7]) it was 4 µg/mL. In addition, the MICs combi in the assay with A. baumannii 401046-18 (setting [8]) worked out at 64 mg/L; in the assay on A. baumannii 401255-18 (setting [8]), 128 mg/L; with A. baumannii 402292-17 (setting [8]), 256 mg/L; in the assay with A. baumannii 402608-17 (setting [8]), 64 mg/L; in the assay with A. baumannii HUMC1 (setting [8]), 1 mg/L; in the assay on A. baumannii IHMA1013816 (setting [8]), 0.06 mg/L. The MICs combi in the assay with A. baumannii IHMA690517 (setting [8]) came to 0.06 mg/L; in the assay with A. baumannii IHMA867231 (setting [8]), 32 mg/L; in the assay with A. baumannii IHMA919656 (setting [8]), 0.03 mg/L; in the assay with A. baumannii UNT087-1 (setting [8]), 4 mg/L; in the assay with A. baumannii UNT191-1 (setting [8]), 0.25 mg/L; in the assay with A. baumannii UNT239-1 (setting [8]) it was 0.25 mg/L. In [1] (setting [8]), the MICs combi was found to be 0.06 mg/L. Besides, the “rifampicin combination MICs” value in [2] (in combination with colistin, isolates with mutations in the rpoB gene) is on record as ≥ 32 mg/L. Further, the “strains on which synergy was observed” value in [2] (rifampicin with colistin) was determined as 88%.

As to `NC[C@H]1O[C@H](O[C@H]2[C@H](O)[C@@H](O[C@H]3O[C@H](CO)[C@@H](O)[C@H](N)[C@H]3O)[C@H](N)C[C@@H]2N)[C@H](N)C[C@@H]1O` [Tobramycin, tobramycin], in assay [1] (CA-MHB), the FICI was 1.5; the Interpretation result is “indifferent (indifferent (FICI>0.50 and ≤4))”.
